The values below are quoted from earlier work in patent publication US20080075658A1, “Method of Radiolabeling Formulations for Gamma Scintigraphy Assessment” (priority 2006, published 2008).

For this series the following is noted: radioactive decay of the radionuclide.

On to `[Tc]` [Example 99mTc, technetium], for which the half life was 6.01 h.

By half-life is commonly meant how long it takes for the measured level to halve. For the compound `[Cl-].[Cl-].[Cl-].[In+3]` [InCl2, indium chloride], the half life entry is on record as “InCl2 half life is 67.2 hrs” and the half-life is 67.2 h.

As for `[O-2].[O-2].[O-2].[Sm+3].[Sm+3]` [Sm2O3, samarium oxide], the half life is 46.27 h.
